This note sets out measurements from patent US4990508A, “Pyridone carboxylic acid derivatives and salts thereof, process for producing the same and antibacterial agents comprising the same” (Toyama Chemical Co., Ltd., priority 1988, dated 1991).

Broadly, the LD50 is the dose expected to kill half of the subjects tested. The MIC is the smallest concentration in the dilution series that meets the test's criterion for growth inhibition.

A short description of data set [1]: Acute toxicity, intravenous, mice. As to conditions: mouse, in vivo, ICR strain male mice, 22±1 g, in 0.1N aqueous sodium hydroxide, read-out: 50% lethal dosage (LD50). How it is done:
A test compound was intravenously administered to a group of three ICR strain male mice each weighing 22±1 g to investigate the acute toxicity.
The test compound was dissolved in a 0.1N aqueous sodium hydroxide solution, and the resulting solution was applied.

A further data set concerns M. morganii T-216. Briefly: MIC, agar dilution, standard method of Japan Society of Chemotherapy. The data set is classed as cell-based. Conditions: Morganella morganii, T216, Heart Infusion agar, 37° C., 20 hours, 10^4 cells/plate (10^6 cells/ml). As to the method:
(§1) According to the standard method of Japan Society of Chemotherapy [CHEMOTHERAPY, 29 (1), 76-79 (1981)], a bacteria solution obtained by culturing in Heart Infusion broth (manufactured by Eiken Kagaku) at 37° C. for 20 hours was inoculated onto a Heart Infusion agar containing a drug and cultured at 37° C. for 20 hours, after which the growth of the bacteria was observed, to determine the minimum concentration at which the growth of the bacteria was inhibited as MIC (μg/ml). The amount of the inoculated bacteria was 10^4 cells/plate (10^6 cells/ml).
A general note: In agar dilution the substance is mixed into plates at graded concentrations.

A further data set concerns E. coli NIHJ. The description is as above. The data set is classed as cell-based. As to conditions: Escherichia coli, Heart Infusion agar, 37° C., 20 hours, 10^4 cells/plate (10^6 cells/ml). How it is done:
as §1

For the next data set, the system named is P. mirabilis T-111. The data set is described as above. The data set is classed as cell-based. As to conditions: Proteus mirabilis, T111, Heart Infusion agar, 37° C., 20 hours, 10^4 cells/plate (10^6 cells/ml). How it is done: as §1
The subject of the next data set is S. marcescens W-134. Described as above. The data set is classed as cell-based. Conditions: Serratia marcescens, W134, Heart Infusion agar, 37° C., 20 hours, 10^4 cells/plate (10^6 cells/ml). How it is done:
as §1

The next data set relates to E. coli TK-111. The description is as above. The data set is classed as cell-based. As to conditions: Escherichia coli, TK111, Heart Infusion agar, 37° C., 20 hours, 10^4 cells/plate (10^6 cells/ml). How it is done:
as §1

A further data set deals with C. freundii N-7. Described as above. The data set is classed as cell-based. As to conditions: Citrobacter freundii. How it is done: as §1
The next data set relates to K. pneumoniae Y-4*. The data set is described as above. Conditions: Klebsiella pneumoniae. The data set is classed as cell-based. As to the method: as §1
(§2) The asterisk in Table 1 means β-Lactamase-producing bacteria.

The next data set deals with P. aeruginosa GN-918*. The data set is described as above. The data set is classed as cell-based. Conditions: Pseudomonas aeruginosa. How it is done: as §1, §2
[2] abbreviates: N7, C. freundii N-7, Heart Infusion agar, 37° C., 20 hours, 10^4 cells/plate (10^6 cells/ml), read-out: MIC.
The mark [3] stands for this setting: K. pneumoniae Y-4, β-Lactamase-producing, Heart Infusion agar, 37° C., 20 hours, 10^4 cells/plate (10^6 cells/ml), read-out: MIC.
Setting [4] is: GN918, P. aeruginosa GN-918, β-Lactamase-producing, Heart Infusion agar, 37° C., 20 hours, 10^4 cells/plate (10^6 cells/ml), read-out: MIC.

Converted amounts (≈) assume the structure as drawn. Structures can show the parent of a compound that is named as a salt. Where two headings read alike, the source gives them in different places.

For the compound `C[C@H]1COc2c(C3(N)CC3)c(F)cc3c(=O)c(C(=O)O)cn1c23.Cl` [Test Compound 5, (S)-10-(1-aminocyclopropyl)-9-fluoro-3-methyl-7-oxo-2,3-dihydro-7H-pyrido[1,2,3-de][1,4]benzoxazine-6-carboxylic acid hydrochloride], the LD50 in [1] was greater than 1000 mg/kg. Besides, the MIC against M. morganii T-216, against E. coli NIHJ, in the data set with P. mirabilis T-111, against S. marcescens W-134, in the data set on E. coli TK-111 and in the data set on C. freundii N-7 (setting [2]) was no more than 0.05 µg/mL throughout. Moreover, the figures for the MIC in the data set on K. pneumoniae Y-4* (setting [3]) and in the data set on P. aeruginosa GN-918* (setting [4]) were no more than 0.05 µg/mL and 0.1 µg/mL, respectively.

`CC1COc2c(C3(N)CC3)c(F)c(N)c3c(=O)c(C(=O)O)cn1c23.Cl` (stereo not shown) [Test Compound 2, 8-Amino-10-(1-aminocyclopropyl)-9-fluoro-3-methyl-7-oxo-2,3-dihydro-7H-pyrido[1,2,3-de][1,4]-benzoxazine-6-carboxylic acid hydrochloride]: the MIC in the data set on M. morganii T-216 was 0.1 µg/mL; against E. coli NIHJ, no more than 0.05 µg/mL; with P. mirabilis T-111 it was 0.39 µg/mL; in the data set on S. marcescens W-134 it was 0.2 µg/mL; against E. coli TK-111, no more than 0.05 µg/mL; in the data set with C. freundii N-7 (setting [2]), 0.1 µg/mL. The MIC in the data set with K. pneumoniae Y-4* (20 h) was 0.39 µg/mL; in the data set on P. aeruginosa GN-918* (setting [4]), 0.78 µg/mL.

In the case of `NC1(c2c(F)cc3c(=O)c(C(=O)O)cn4c3c2OCC42CC2)CC1` [Test Compound 9, 10'-(1-Aminocyclopropyl)-9'-fluoro-7+-oxospiro{cyclopropane-1,3'(2'H)-[7H]-pyrido[1,2,3-de][1,4]benzoxazine}-6'-carboxylic acid hydrochloride], the MIC is 0.1 µg/mL in the data set on M. morganii T-216; 0.1 µg/mL against E. coli NIHJ; 0.39 µg/mL in the data set on P. mirabilis T-111; 0.2 µg/mL with S. marcescens W-134; no more than 0.05 µg/mL in the data set with E. coli TK-111; 0.2 µg/mL in the data set with C. freundii N-7 (setting [2]). For the same compound, the MIC was determined as 0.39 µg/mL in the data set on K. pneumoniae Y-4* (20 h) and 0.39 µg/mL with P. aeruginosa GN-918* (GN918, 20 h).

As for `CC1COc2c(C3(N)CC3)c(F)c(O)c3c(=O)c(C(=O)O)cn1c23.Cl` (stereo not shown) [Test Compound 4, 10-(1-Aminocyclopropyl)-9-fluoro-8-hydroxy-3-methyl-7-oxo-2,3-dihydro-7H-pyrido[1,2,3-de][1,4]-benzoxazine-6-carboxylic acid hydrochloride], the MIC against M. morganii T-216 was no more than 0.05 µg/mL; in the data set with E. coli NIHJ, no more than 0.05 µg/mL; against P. mirabilis T-111 it was 0.2 µg/mL; in the data set on S. marcescens W-134, 0.2 µg/mL; against E. coli TK-111, no more than 0.05 µg/mL; against C. freundii N-7 (N7, 20 h) it was 0.39 µg/mL. Further, the MIC against K. pneumoniae Y-4* (20 h) was determined as 0.39 µg/mL; with P. aeruginosa GN-918* (setting [4]), 0.78 µg/mL.

For the compound `CC1COc2c(C3(N)CC3)c(F)c(F)c3c(=O)c(C(=O)O)cn1c23.Cl` (stereo not shown) [Test Compound 3, 10-(1-Aminocyclopropyl)-8,9-difluoro-3-methyl-7-oxo-2,3-dihydro-7H-pyrido[1,2,3-de][1,4]benzoxazine-6-carboxylic acid hydrochloride], the MIC was no more than 0.05 µg/mL in the data set on M. morganii T-216; no more than 0.05 µg/mL against E. coli NIHJ; 0.2 µg/mL with P. mirabilis T-111; 0.2 µg/mL against S. marcescens W-134; no more than 0.05 µg/mL in the data set with E. coli TK-111; 0.2 µg/mL in the data set with C. freundii N-7 (setting [2]). The MIC in the data set with K. pneumoniae Y-4* (20 h) came out at 0.39 µg/mL; in the data set with P. aeruginosa GN-918* (setting [4]) it was 0.78 µg/mL.

Take `Br.C=C1COc2c(C3(N)CC3)c(F)cc3c(=O)c(C(=O)O)cn1c23` [Test Compound 8, 10-(1-Aminocyclopropyl)-9-fluoro-3-methylene-7-oxo-2,3-dihydro-7H-pyrido[1,2,3-de][1,4]benzoxazine-6-carboxylic acid hydrobromide]: the MIC in the data set with M. morganii T-216 is 0.1 µg/mL; against E. coli NIHJ, 0.1 µg/mL; in the data set with P. mirabilis T-111 it was 0.39 µg/mL; against S. marcescens W-134, 0.2 µg/mL; with E. coli TK-111, no more than 0.05 µg/mL; in the data set with C. freundii N-7 (setting [2]) it was 0.1 µg/mL. For the same compound, the minimal inhibitory concentration (MIC) with K. pneumoniae Y-4* (setting [3]) amounted to 0.2 µg/mL; in the data set with P. aeruginosa GN-918* (GN918, 20 h), 0.39 µg/mL.

With `CC1COc2c(C3(N)CC3)c(F)cc3c(=O)c(C(=O)O)cn1c23.Cl` (stereo not shown) [Test Compound 1, 10-(1-Aminocyclopropyl)-9-fluoro-3-methyl-7-oxo-2,3-dihydro-7H-pyrido[1,2,3-de][1,4] benzoxazine-6carboxylic acid hydrochloride], the MIC was no more than 0.05 µg/mL in the data set with M. morganii T-216; no more than 0.05 µg/mL against E. coli NIHJ; 0.1 µg/mL with P. mirabilis T-111; 0.1 µg/mL with S. marcescens W-134; no more than 0.05 µg/mL against E. coli TK-111; no more than 0.05 µg/mL in the data set with C. freundii N-7 (setting [2]). The MIC with K. pneumoniae Y-4* (setting [3]) and in the data set with P. aeruginosa GN-918* (setting [4]) was 0.2 µg/mL in each case.

For the compound `CNC1(c2c(F)cc3c(=O)c(C(=O)O)cn4c3c2OC[C@@H]4C)CC1.Cl` [Test Compound 11, (S)-10-[1-(N-methylamino)cyclopropyl]-9-fluoro-3-methyl-7-oxo-2,3-dihydro-7H-pyrido[1,2,3-de][1,4]-benzoxazine-6-carboxylic acid hydrochloride], the MIC against M. morganii T-216 was no more than 0.05 µg/mL; against E. coli NIHJ it was no more than 0.05 µg/mL; against P. mirabilis T-111, 0.1 µg/mL; against S. marcescens W-134 it was 0.1 µg/mL; against E. coli TK-111, no more than 0.05 µg/mL; in the data set with C. freundii N-7 (setting [2]), 0.1 µg/mL. Besides, the MIC in the data set with K. pneumoniae Y-4* (setting [3]) came to 0.1 µg/mL; with P. aeruginosa GN-918* (setting [4]), 0.2 µg/mL.

For `Cl.NC1(c2c(F)cc3c(=O)c(C(=O)O)cn4c3c2OCC4CF)CC1` (stereo not shown) [Test Compound 6, 10-(1-Aminocyclopropyl)-9-fluoro-3-fluoromethyl-7-oxo-2,3-dihydro-7H-pyrido[1,2,3-de][1,4]benzoxazine-6-carboxylic acid hydrochloride], the minimum inhibitory concentration (MIC) in the data set on M. morganii T-216 is no more than 0.05 µg/mL; in the data set on E. coli NIHJ, no more than 0.05 µg/mL; against P. mirabilis T-111 it was 0.1 µg/mL; in the data set with S. marcescens W-134, 0.1 µg/mL; with E. coli TK-111, no more than 0.05 µg/mL; in the data set on C. freundii N-7 (setting [2]), 0.1 µg/mL. Moreover, the MIC with K. pneumoniae Y-4* (setting [3]) and in the data set on P. aeruginosa GN-918* (setting [4]) was 0.2 µg/mL throughout.

Turning to `CC1COc2c(N3CCN(C)CC3)c(F)cc3c(=O)c(C(=O)O)cn1c23` (racemic) [Control compd., (±)9-Fluoro-2,3-dihydro-3-methyl-10-(4-methyl-1-piperazinyl)-7-oxo-7H-pyrido[1,2,3-de][1,4]benzoxazine-6carboxylic acid, reference compound], the minimal inhibitory concentration (MIC) is 0.1 µg/mL (≈ 0.277 µM) in the data set with M. morganii T-216; no more than 0.05 µg/mL against E. coli NIHJ; 0.39 µg/mL (≈ 1.08 µM) against P. mirabilis T-111; 0.2 µg/mL (≈ 0.553 µM) against S. marcescens W-134; no more than 0.05 µg/mL in the data set on E. coli TK-111; 0.39 µg/mL (≈ 1.08 µM) with C. freundii N-7 (N7, 20 h). For the same compound, the values for the MIC in the data set with K. pneumoniae Y-4* (20 h) and with P. aeruginosa GN-918* (setting [4]) were 0.39 µg/mL (≈ 1.08 µM) and 3.13 µg/mL (≈ 8.66 µM), respectively.

Turning to `CC[C@H]1COc2c(C3(N)CC3)c(F)cc3c(=O)c(C(=O)O)cn1c23.Cl` [Test Compound 7, (S)-10-(1-aminocyclopropyl)-3-ethyl-9-fluoro-7-oxo-2,3-dihydro-7H-pyrido[1,2,3-de][1,4]benzoxazine-6carboxylic acid hydrochloride], the MIC in the data set with M. morganii T-216 was no more than 0.05 µg/mL; in the data set on E. coli NIHJ it was no more than 0.05 µg/mL; in the data set on P. mirabilis T-111, 0.2 µg/mL; in the data set with S. marcescens W-134 it was 0.1 µg/mL; in the data set with E. coli TK-111, no more than 0.05 µg/mL; in the data set with C. freundii N-7 (setting [2]), 0.1 µg/mL. Besides, the MIC with K. pneumoniae Y-4* (setting [3]) and in the data set on P. aeruginosa GN-918* (setting [4]) was 0.2 µg/mL each time.

On to `CC1CC1(N)c1c(F)cc2c(=O)c(C(=O)O)cn3c2c1OC[C@@H]3C.Cl` (stereo partly drawn) [Test Compound 10, (S)-10-(1-amino-2-methylcyclopropyl)-9-fluoro-3-methyl-7-oxo-2,3-dihydro-7H-pyrido[1,2,3-de][1,4]-benzoxazine-6-carboxylic acid hydrochloride], for which the MIC with M. morganii T-216 is no more than 0.05 µg/mL; against E. coli NIHJ, no more than 0.05 µg/mL; with P. mirabilis T-111 it was 0.2 µg/mL; in the data set with S. marcescens W-134, 0.1 µg/mL; against E. coli TK-111, no more than 0.05 µg/mL; in the data set with C. freundii N-7 (setting [2]), no more than 0.05 µg/mL. Moreover, the MIC in the data set on K. pneumoniae Y-4* (setting [3]) and in the data set with P. aeruginosa GN-918* (setting [4]) was 0.2 µg/mL in each case.
